Results on 4 molecules are retold here after patent publication US11884710B2, “Peptide compounds and methods of use in wound healing” (priority 2013, dated 2024).

The test system of assay [1] is Acinetobacter baumannii ATCC BAA-747. Nature of the assay: In vitro bactericidal assay, A. baumannii ATCC BAA-747 (FIGS. 10-11). It counts as cell-based. To be noted: for reduction of CFU/ml: highest peptide concentration. On the procedure:
Each of the test peptides was used at 25, 12.5 6.25 and 3.12 μM. The gentamicin was used at 4 μg/ml. 1×10^6/ml Acinetobacter baumannii ATCC® BAA-747™ (American Type Culture Collection, Manassas, Va.) were incubated with the peptides, negative buffer control (tryptone saline), and positive control gentamicin for 60 minutes at pH 5.5. 50 μl aliquots were plated out on agar plates and incubated overnight. Colony forming units were counted after overnight incubation and CFU/ml calculated.
Each of the test peptides was used at 25, 12.5 6.25 and 3.12 μM. The gentamicin was used at 4 μg/ml. 1×10^6/ml Acinetobacter baumannii ATCC® BAA-747™ (American Type Culture Collection, Manassas, Va.) were incubated with the peptides, negative buffer control (tryptone saline), and positive control gentamicin for 60 minutes at pH 7.2. 50 μl aliquots were plated out on agar plates and incubated overnight. Colony forming units were counted after overnight incubation and CFU/ml calculated.
For FIGS. 10-13, in vitro bactericidal assays were performed using a starting inoculum of 1×10^6 CFU/ml of the bacterial suspension. The CFU remaining at the end of the 60-180 minute incubation was determined, and the data was plotted as log reduction in CFU/ml.
In particular, each of the test peptides (CAP37 peptides 120-146WR, 120-146WH, and 95-122 (SEQ ID NOS:30, 31, and 26, respectively)) was used at 25, 12.5, 6.25, and 3.12 μM. Gentamicin was used at 4 μg/ml. 1×10^6/ml Acinetobacter baumannii ATCC® BAA-747™ or Pseudomonas aeruginosa ATCC® 27853™ (American Type Culture Collection, Manassas, Va.) were incubated with the peptides, negative buffer control (tryptone saline), and positive control gentamicin at pH 5.5 or 7.2. A 60 minute incubation was used for Acinetobacter baumannii ATCC® BAA-747™, while a 180 minute incubation was used for Pseudomonas aeruginosa ATCC® 27853™. 50 μl aliquots were plated out on agar plates and incubated overnight. Colony forming units were counted after overnight incubation and CFU/ml calculated.

Assay [2] relates to mouse corneal epithelium abrasion. Briefly: In vivo model of corneal wound healing. On the procedure:
(§1) The mouse corneal epithelium was removed using the AlgerBrush II (The Alger Company, Inc., Lago Vista, Tex.), and corneal abrasions were treated at 0 hours and 16 hours with peptide 95-122 (10^−5 M), or were left untreated in 0.9% sodium chloride (saline vehicle) Wound healing was monitored at 0, 16, and 24 hours using fluorescein staining and a camera-equipped inverted microscope. Data are represented as the percentage of wound closure at 16 hours and 24 hours and are expressed as means±SEM. The data are representative of at least 6 mice per group. *P<0.05 by unpaired t-test as compared to vehicle (0.9% sodium chloride) treated controls.
as §1, with “II,” for “II (The Alger Company, Inc., Lago Vista, Tex.),”, “0” for “0 hours”, “120-146WH (10^−8 M or 10^−6” for “95-122 (10^−5”, “vehicle control).” for “vehicle)”, “group. ***P<0.001,” for “group.”
(A) The epithelium of the mouse cornea was removed using the AlgerBrush II, and corneal abrasions were treated at 0 and 16 hours with HB-EGF (250 ng/ml), rCAP37 (250 ng/ml), or vehicle control (normal saline). Wound closure was monitored at 0, 16, 24, and 48 hours using fluorescein staining and a camera-equipped inverted microscope. Data are represented as the percentage of wound closure and are expressed as mean±SEM. The data are representative of at least 6 mice per group. The percentage of wound closure in response to treatment was compared to vehicle-treated controls by unpaired t-test, **P<0.01, *P<0.05. (B) Representative images of mouse corneal wounds are shown at 0, 16, 24, and 48 hours following treatment with vehicle, HB-EGF, and CAP37. Black dotted lines indicate the wound edge.
In vivo model of corneal wound healing: The in vivo model of wound healing was carried out using a disposable biopsy punch (2 mm, Miltex, York, Pa.) to demarcate the mouse cornea and a 0.5 mm burr using the AlgerBrush II (The Alger Company, Inc., Lago Vista, Tex.) to remove the corneal epithelium.
In vivo model of wound healing: Mice were anesthetized using ketamine (100 mg/kg; Bionichepharma, LLC., St. Lake Forrest, Ill.) and xylazine ([…]; Rompun; Bayer Corp., Shawnee Mission, Kans.), and the right cornea was wounded as follows. A disposable biopsy punch (2 mm, Miltex, York, Pa.) was used to demarcate the mouse cornea. The corneal epithelium was carefully removed within the 2 mm demarcated area with a 0.5 mm burr using the AlgerBrush II (The Alger Company, Inc., Lago Vista, Tex.). The corneal abrasions were treated at 0 and 16 hours with HB-EGF (250 ng/ml), rCAP37 (250 ng/ml), or vehicle control (0.9% sodium chloride, pH 5.5, Baxter, Deerfield, Ill.). Corneal abrasions were visualized using sterile fluorescein sodium ophthalmic strips USP (FLUORETS®, Chauvin Laboratory, Aubenas, France) dampened with sterile PBS. […] The areas of the open wound were quantitated using ImageJ software (US National Institutes of Health), and the results were reported as the percentage of wound closure.

Consider “GTRCQVAGWGSWHSGGRLSRFPRFVNV (derivative of peptide of CAP37 protein) [Peptide 120-146WH]”, for which the “reduction of CFU/ml” value in assay [1] (pH 5.5, 60 minutes) is approximately 4 logs; in assay [1] (pH 7.2, 60 minutes) it was approximately 5.5 logs. For the same molecule, the “bactericidal activity, in words” value in assay [1] (peptide at 25 μM) is listed as “highly active”. Further, in assay [2] (peptide 10^−8 M or 10^−6 M at 0 and 16 hours, read at 16 and 24 hours), the “amount of corneal wound healing vs vehicle, in words” value was “significantly greater”.

Consider “GTRCQVAGWGSWRSGGRLSRFPRFVNV (derivative of peptide of Homo sapiens CAP37 protein) [Peptide 120-146WR]”, for which the “reduction of CFU/ml” value in assay [1] (pH 5.5, 60 minutes) is listed as approximately 4 logs; in assay [1] (pH 7.2, 60 minutes), approximately 5.5 logs. Besides, the “bactericidal activity, in words” value in assay [1] (peptide at 12.5 μM) and in assay [1] (peptide at 25 μM) was “highly active” each time.

“LDREANLTSSVTILPLPLQNATVEAGTR (listed as Homo sapiens) [Peptide 95-122]”: the “bactericidal activity, in words” value in assay [1] (pH 5.5, 60 minutes, peptides 3.12-25 μM, gentamicin 4 μg/ml) is recorded as “not active”; in assay [1] (pH 7.2, 60 minutes, peptides 3.12-25 μM, gentamicin 4 μg/ml), “not active”. Further, in assay [2] (peptide 10^−5 M at 0 and 16 hours, read at 16 and 24 hours), the “corneal wound closure, in words” value is “promotes corneal wound healing in vivo”.

B1: CAP37: cationic antimicrobial protein of Mr 37 kDa; recombinant CAP37 produced in human embryonic kidney (HEK) 293 cells (protein)
chain: IVGGRKARPRQFPFLASIQNQGRHFCGGALIHARFVMTAASCFQSQNPGVSTVVLGAYDLRRRERQSRQTFSISSMSENGYDPQQNLNDLMLLQLDREANLTSSVTILPLPLQNATVEAGTRCQVAGWGSQRSGGRLSRFPRFVNVTVTPEDQCRPNNVCTGVLTRRGGICNGDGGTPLVCEGLAHGVASFSLGPCGRGPDFFTRVALFRDWIDGVLNNPGP
On to B1, for which the “reduction of corneal wound size” value in assay [2] (CAP37 250 ng/ml at 0 and 16 hours, at 16 hours) is listed as 71%. Also, the corneal wound closure in assay [2] (CAP37 250 ng/ml at 0 and 16 hours, by 24 hours) was determined as 83%.
